Test results published in patent US11773078B2, “Furin inhibitors” (Glaxosmithkline Intellectual Property Development Limited, priority 2018, dated 2023).
Structures can show the parent of a compound that is named as a salt.

Columns and labels:
[1] = molecular target: T1, Furin (108-574-Tev-Flag-His) enzyme (Homo sapiens, UniProt P09958); experiment: Furin enzyme assay; format: biochemical
T1 construct: Furin (108-574-Tev-Flag-His) enzyme was expressed and purified from CHO cells; TEV cleavage site (C); FLAG (C); His (C); made in house; host or cells: CHO cells
Procedure, shortened: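 Compounds ran as 11-point threefold dilutions (0.00017–10 μM final) against 40 pM furin, purified from CHO cells, for 2 h at room temperature. Buffer: 100 mM HEPES pH7.5 with 1 mM CaCl2 and 0.005% Triton X-100. Envision readout. Four-parameter curve gives pXC50.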

[2] = molecular target: T2, furin (endogenous protease) in U20S cells (Homo sapiens, UniProt P09958); experiment: Furin cell-based assay (image-based, Golgi-targeted GFP with BMP10 furin/PCSK cleavage site); details: 24-hour incubation, read-out: furin golgi cell pXC50 (converted);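 further: Read-out is mean GFP fluorescence of Golgi puncta per cell by high-content imaging, retained when furin inhibited, over an eleven-point 0.00017–10 µM series, four-parameter fit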
T2 construct: the endogenous protease cleaves GFP; endogenous in cells; host or cells: U2OS cells transduced with a BacMam reporter
T2 sequence (P09958 108-794): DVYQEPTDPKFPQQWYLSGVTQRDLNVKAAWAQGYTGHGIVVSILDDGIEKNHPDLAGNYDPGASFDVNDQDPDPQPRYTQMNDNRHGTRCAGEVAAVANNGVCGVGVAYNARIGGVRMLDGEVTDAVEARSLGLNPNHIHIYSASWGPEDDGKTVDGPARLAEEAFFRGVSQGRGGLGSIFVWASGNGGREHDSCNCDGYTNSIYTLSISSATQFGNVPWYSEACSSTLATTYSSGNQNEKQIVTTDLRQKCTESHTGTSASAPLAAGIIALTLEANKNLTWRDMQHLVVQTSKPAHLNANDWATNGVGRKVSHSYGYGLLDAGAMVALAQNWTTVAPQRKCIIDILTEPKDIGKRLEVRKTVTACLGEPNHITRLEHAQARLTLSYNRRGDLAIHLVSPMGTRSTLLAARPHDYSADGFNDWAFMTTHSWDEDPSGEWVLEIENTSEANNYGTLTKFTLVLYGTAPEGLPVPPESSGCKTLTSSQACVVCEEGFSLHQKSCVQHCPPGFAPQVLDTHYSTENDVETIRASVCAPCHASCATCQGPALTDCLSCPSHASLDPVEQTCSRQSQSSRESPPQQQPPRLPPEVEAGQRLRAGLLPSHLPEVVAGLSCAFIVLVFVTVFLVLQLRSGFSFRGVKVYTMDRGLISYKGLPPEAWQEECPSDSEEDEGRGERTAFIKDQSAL

T1 sequence (P09958 108-574): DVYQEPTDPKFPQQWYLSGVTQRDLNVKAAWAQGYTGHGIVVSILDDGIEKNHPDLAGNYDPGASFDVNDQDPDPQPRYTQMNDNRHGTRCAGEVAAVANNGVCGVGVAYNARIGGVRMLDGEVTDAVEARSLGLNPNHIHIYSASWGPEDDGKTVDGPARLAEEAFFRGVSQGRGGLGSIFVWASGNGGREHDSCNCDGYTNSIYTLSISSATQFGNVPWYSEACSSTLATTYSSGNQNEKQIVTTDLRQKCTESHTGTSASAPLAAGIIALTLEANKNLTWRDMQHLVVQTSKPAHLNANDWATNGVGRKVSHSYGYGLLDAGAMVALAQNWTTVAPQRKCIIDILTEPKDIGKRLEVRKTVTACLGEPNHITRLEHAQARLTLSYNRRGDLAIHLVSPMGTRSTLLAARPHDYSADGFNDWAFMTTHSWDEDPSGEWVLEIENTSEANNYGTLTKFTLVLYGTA

Row | Compound | furin enzyme pIC50 [1] | EC50 [2]
1 | CN1CCN(c2ncc(Oc3cc(CN4CCC(CB(O)O)CC4)cc(-c4cc(Cl)cc(Cl)c4)n3)cn2)CC1 [Example 318, ((1-((2-(3,5-Dichlorophenyl)-6-((2-(4-methylpiperazin-1-yl)pyrimidin-5-yl)oxy)pyridin-4-yl)methyl)piperidin-4-yl)methyl)boronic acid, 4 hydrochloride] | 8.9 | 10 nM
2 | CC(=O)NCC1CCN(Cc2cc(Oc3cnc(N4CCN(CCB(O)O)CC4)nc3)nc(-c3cc(Cl)cc(Cl)c3)c2)CC1 [Example 319, (2-(4-(5-((4-((4-(Acetamidomethyl)piperidin-1-yl)methyl)-6-(3,5-dichlorophenyl)pyridin-2-yl)oxy)pyrimidin-2-yl)piperazin-1-yl)ethyl)boronic acid, 4 hydrochloride] | 8.9 | 1 nM
3 | CN1CCN(c2ncc(Oc3cc(CN4CCC(CP(C)(C)=O)CC4)cc(-c4cc(Cl)cc(Cl)c4)n3)cn2)CC1 [Example 320, ((1-((2-(3,5-Dichlorophenyl)-6-((2-(4-methylpiperazin-1-yl)pyrimidin-5-yl)oxy)pyridin-4-yl)methyl)piperidin-4-yl)methyl)dimethylphosphine oxide, 4 hydrochloride] | 8.2 | 12.6 nM
4 | CN1CCCN(c2ncc(Oc3cc(CN4CCC(CB(O)O)CC4)cc(-c4cc(Cl)cc(Cl)c4)n3)cn2)CC1 [Example 322, ((1-((2-(3,5-dichlorophenyl)-6-((2-(4-methyl-1,4-diazepan-1-yl)pyrimidin-5-yl)oxy)pyridin-4-yl)methyl)piperidin-4-yl)methyl)boronic acid] | 8.9 | 6.31 nM
5 | CN1CCN(c2ncc(Oc3cc(CN4CCC(CCB(O)O)CC4)cc(-c4cc(Cl)cc(Cl)c4)n3)cn2)CC1 [Example 323, (2-(1-((2-(3,5-dichlorophenyl)-6-((2-(4-methylpiperazin-1-yl)pyrimidin-5-yl)oxy)pyridin-4-yl)methyl)piperidin-4-yl)ethyl)boronic acid] | 8.7 | 12.6 nM
6 | CC(=O)NC(=O)OCC1CCN(Cc2cc(Oc3cnc(N4CCN(C)CC4)nc3)nc(-c3cc(Cl)cc(Cl)c3)c2)CC1 [Example 324] | 8.3 | 15.8 nM
7 | COC(=O)NC(=O)NCC1CCN(Cc2cc(Oc3cnc(N4CCN(C)CC4)nc3)nc(-c3cc(Cl)cc(Cl)c3)c2)CC1 [Example 325] | 8.3 | 6.31 nM
8 | CN1CCN(c2ncc(Oc3cc(CN4CCC(CNC(=O)NS(C)(=O)=O)CC4)cc(-c4cc(Cl)cc(Cl)c4)n3)cn2)CC1 [Example 326, N-(((1-((2-(3,5-dichlorophenyl)-6-((2-(4-methylpiperazin-1-yl)pyrimidin-5-yl)oxy)pyridin-4-yl)methyl)piperidin-4-yl)methyl)carbamoyl)methanesulfonamide] | 8.7 | 12.6 nM
9 | CC(=O)NC(=O)NCC1CCN(Cc2cc(Oc3cnc(N4CCN(C)CC4)nc3)nc(-c3cc(Cl)cc(Cl)c3)c2)CC1 [Example 327] | 8.6 | 3.16 nM
10 | CN1CCN(c2ncc(Oc3cc(CN4CCC(NC(=O)NS(C)(=O)=O)CC4)cc(-c4cc(Cl)cc(Cl)c4)n3)cn2)CC1 [Example 328, N-((1-((2-(3,5-dichlorophenyl)-6-((2-(4-methylpiperazin-1-yl)pyrimidin-5-yl)oxy)pyridin-4-yl)methyl)piperidin-4-yl)carbamoyl)methanesulfonamide] | 8.3 | 12.6 nM
11 | CN1CCN(c2ncc(Oc3cc(CN4CCC(NC(N)=O)CC4)cc(-c4cc(Cl)cc(Cl)c4)n3)cn2)CC1 [Example 329, 1-(1-((2-(3,5-dichlorophenyl)-6-((2-(4-methylpiperazin-1-yl)pyrimidin-5-yl)oxy)pyridin-4-yl)methyl)piperidin-4-yl)urea] | 8.2 | 15.8 nM
12 | CN1CCN(c2ncc(Oc3cc(CN4CCO[C@H](CO)CC4)cc(-c4cc(Cl)cc(Cl)c4)n3)cn2)CC1 [Example 330, (S)-(4-((2-(3,5-Dichlorophenyl)-6-((2-(4-methylpiperazin-1-yl)pyrimidin-5-yl)oxy)pyridin-4-yl)methyl)-1,4-oxazepan-7-yl)methanol, 4 hydrochloride] | 8 | 10 nM
13 | CN1CCN(c2ncc(Oc3cc(CN4CCC(P(C)(C)=O)CC4)cc(-c4cc(Cl)cc(Cl)c4)n3)cn2)CC1 [Example 331, (1-((2-(3,5-Dichlorophenyl)-6-((2-(4-methylpiperazin-1-yl)pyrimidin-5-yl)oxy)pyridin-4-yl)methyl)piperidin-4-yl)dimethylphosphine oxide, 4 hydrochloride] | 7.8 | 20 nM
14 | CN1CCN(c2ncc(Nc3cc(CN4CCC(CC(=O)O)CC4)cc(-c4cc(Cl)cc(Cl)c4)n3)cn2)CC1 [Example 332, 2-(1-((2-(3,5-Dichlorophenyl)-6-((2-(4-methylpiperazin-1-yl)pyrimidin-5-yl)amino)pyridin-4-yl)methyl)piperidin-4-yl)acetic acid, 4 hydrochloride] | 8.3 | 50.1 nM
15 | Cc1c(CN2CCC(CC(=O)O)CC2)cc(-c2cc(Cl)cc(Cl)c2)nc1Oc1cnc(N2CCN(C)CC2)cn1 [Example 333, 2-(1-((6-(3,5-Dichlorophenyl)-3-methyl-2-((5-(4-methylpiperazin-1-yl)pyrazin-2-yl)oxy)pyridin-4-yl)methyl)piperidin-4-yl)acetic acid] | 8.7 | 12.6 nM
16 | CC(=O)NCC1CCN(Cc2cc(Oc3cnc(N4CC5CCC(C4)N5)nc3)nc(-c3cc(Cl)cc(Cl)c3)c2)CC1 [Example 335, N-((1-((2-((2-(3,8-diazabicyclo[3.2.1]octan-3-yl)pyrimidin-5-yl)oxy)-6-(3,5-dichlorophenyl)pyridin-4-yl)methyl)piperidin-4-yl)methyl)acetamide] | 9.2 | 1.26 nM
17 | COC(=O)NCC1CCN(Cc2cc(Oc3cnc(N4CCN5CCC4C5)nc3)nc(-c3cc(Cl)cc(Cl)c3)c2)CC1 (centres unmarked) [Example 336, methyl ((1-((2-((2-(1,4-diazabicyclo[3.2.1]octan-4-yl)pyrimidin-5-yl)oxy)-6-(3,5-dichlorophenyl)pyridin-4-yl)methyl)piperidin-4-yl)methyl)carbamate] | 9.1 | 3.98 nM
18 | O=C(O)[C@H]1[C@@H]2CCN(Cc3cc(Oc4cnc(N5CCN6CCC5C6)nc4)nc(-c4cc(Cl)cc(Cl)c4)c3)CC[C@@H]21 (stereo partly drawn) [Example 337, (1R,7S,8r)-4-((2-((2-(1,4-diazabicyclo[3.2.1]octan-4-yl)pyrimidin-5-yl)oxy)-6-(3,5-dichlorophenyl)pyridin-4-yl)methyl)-4-azabicyclo[5.1.0]octane-8-carboxylic acid] | 9 | 7.94 nM
19 | FC1CCN(Cc2cc(Oc3cnc(N4CCN5CCC4C5)nc3)nc(-c3cc(Cl)cc(Cl)c3)c2)CC1 (centres unmarked) [Example 338, 4-(5-((6-(3,5-dichlorophenyl)-4-((4-fluoropiperidin-1-yl)methyl)pyridin-2-yl)oxy)pyrimidin-2-yl)-1,4-diazabicyclo[3.2.1]octane] | 8 | 12.6 nM
20 | CC(CCN1CCN(c2cnc(Oc3cc(CN4CCC(CCO)CC4)cc(-c4cc(Cl)cc(Cl)c4)n3)cn2)CC1)C(=O)O (centres unmarked) [Example 341, 4-(4-(5-((6-(3,5-dichlorophenyl)-4-((4-(2-hydroxyethyl)piperidin-1-yl)methyl)pyridin-2-yl)oxy)pyrazin-2-yl)piperazin-1-yl)-2-methylbutanoic acid] | 8.8 | 10 nM
21 | OCCC1CCN(Cc2cc(Oc3cnc(N4CCNCC4)cn3)nc(-c3cc(Cl)cc(Cl)c3)c2)CC1 [Example 342, 2-(1-((2-(3,5-dichlorophenyl)-6-((5-(piperazin-1-yl)pyrazin-2-yl)oxy)pyridin-4-yl)methyl)piperidin-4-yl)ethanol] | 8.7 | 5.01 nM
22 | CC(C)(O)CN1CCN(c2cnc(Oc3cc(CN4CCC(CC(=O)O)CC4)cc(-c4cc(Cl)cc(Cl)c4)n3)cn2)CC1 [Example 343, 2-(1-((2-(3,5-dichlorophenyl)-6-((5-(4-(2-hydroxy-2-methylpropyl)piperazin-1-yl)pyrazin-2-yl)oxy)pyridin-4-yl)methyl)piperidin-4-yl)acetic acid] | 8.7 | 63.1 nM
23 | O=C(O)CC1CCN(Cc2cc(Oc3ccc(N4CCN5CCC4C5)nn3)nc(-c3cc(Cl)cc(Cl)c3)c2)CC1 (centres unmarked) [Example 344, 2-(1-((2-((6-(1,4-diazabicyclo[3.2.1]octan-4-yl)pyridazin-3-yl)oxy)-6-(3,5-dichlorophenyl)pyridin-4-yl)methyl)piperidin-4-yl)acetic acid] | 8.4 | 79.4 nM
24 | CCN1CCCN(c2cnc(Oc3cc(CN4CCC(CC(=O)O)CC4)cc(-c4cc(Cl)cc(Cl)c4)n3)cn2)CC1 [Example 345, 2-(1-((2-(3,5-dichlorophenyl)-6-((5-(4-ethyl-1,4-diazepan-1-yl)pyrazin-2-yl)oxy)pyridin-4-yl)methyl)piperidin-4-yl)acetic acid] | 8.6 | 12.6 nM
25 | CN1C[C@@H]2C[C@H]1CN2c1cnc(Oc2cc(CN3CCC(CC(=O)O)CC3)cc(-c3cc(Cl)cc(Cl)c3)n2)cn1 [Example 346, 2-(1-((2-(3,5-dichlorophenyl)-6-((5-((1S,4S)-5-methyl-2,5-diazabicyclo+2.2.1+heptan-2-yl)pyrazin-2-yl)oxy)pyridin-4-yl)methyl)piperidin-4-yl)acetic acid] | 8.5 | 12.6 nM
